Assay results reported in patent US20100227917A1, “EYE DROP CONTAINING DIBENZ[b,e]OXEPIN DERIVATIVE” (priority 2007, published 2010).

Key:
Format in all cases: physicochemical
pH measurement = assay: pH measurement
[1] = Osmotic pressure measurement with osmometer; settings: ratio to physiological saline (293 mOsm), after 43 hours
Procedure: An osmotic pressure was measured using an osmometer (Osmostat OM6040, Arkray, Inc.).
Further, a ratio to the osmotic pressure of physiological saline was calculated according to the following equation.
(osmotic pressure ratio)=(osmotic pressure of test liquid)/(osmotic pressure of physiological saline)(293mOsm)

[2] = External observation of olopatadine hydrochloride mixtures (Test Examples 1 and 2); settings: for External appearance after 1 hour stirring: about 23° C.; for External appearance after 43 hours: left at about 23° C.
[3] = 100 mg in 10 mL Aqueous solution of 0.9% NaCl
[4] = 100 mg in 10 mL Buffer at pH 4.0 containing 0.9% NaCl
[5] = 100 mg in 10 mL Buffer at pH 7.0 containing 0.9% NaCl
[6] = 100 mg in 10 mL glutamic acid-sodium glutamate buffer at pH 4.0, column prepared to pH 4.0
[7] = 100 mg in 10 mL glutamic acid-sodium glutamate buffer at pH 4.0, column prepared to pH 7.0
[8] = 100 mg in 10 mL glutamic acid-sodium glutamate buffer at pH 7.0, column prepared to pH 4.0
[9] = 100 mg in 10 mL glutamic acid-sodium glutamate buffer at pH 7.0, column prepared to pH 7.0
[10] = Aqueous solution of 0.9% NaCl, prepared to pH 4
[11] = Buffer at pH 4.0 containing 0.9% NaCl, prepared to pH 4
[12] = Buffer at pH 7.0 containing 0.9% NaCl, prepared to pH 4
[13] = glutamic acid-sodium glutamate buffer at pH 4.0, prepared to pH 4.0
[14] = glutamic acid-sodium glutamate buffer at pH 4.0, prepared to pH 7.0
[15] = glutamic acid-sodium glutamate buffer at pH 7.0, prepared to pH 4.0
[16] = glutamic acid-sodium glutamate buffer at pH 7.0, prepared to pH 7.0

- pH after 1 hour stirring (pH measurement; [3]): 3.0
- pH after 1 hour stirring (pH measurement; [4]): 3.6
- pH after 1 hour stirring (pH measurement; [5]): 4.1
- pH after 1 hour stirring (pH measurement; [6]): 3.3
- pH after 1 hour stirring (pH measurement; [7]): 3.3
- pH after 1 hour stirring (pH measurement; [8]): 4.0
- pH after 1 hour stirring (pH measurement; [9]): 4.0
- pH adjustment (actual measurement value) (pH measurement; [10]): 3.8
- pH after 43 hours (pH measurement; [10]): 3.7
- pH adjustment (actual measurement value) (pH measurement; [11]): 3.8
- pH after 43 hours (pH measurement; [11]): 3.8
- pH adjustment (actual measurement value) (pH measurement; [12]): 4.1
- pH after 43 hours (pH measurement; [12]): 3.9
- pH adjustment (actual measurement value) (pH measurement; [13]): 4.1
- pH after 43 hours (pH measurement; [13]): 3.9
- pH adjustment (actual measurement value) (pH measurement; [14]): 6.9
- pH after 43 hours (pH measurement; [14]): 6.9
- pH adjustment (actual measurement value) (pH measurement; [15]): 4.0
- pH after 43 hours (pH measurement; [15]): 3.7
- pH adjustment (actual measurement value) (pH measurement; [16]): 6.9
- pH after 43 hours (pH measurement; [16]): 6.9
- Osmotic pressure ratio [1, 10]: 1.085
- Osmotic pressure ratio [1, 11]: 1.167
- Osmotic pressure ratio [1, 12]: 1.201
- Osmotic pressure ratio [1, 13]: 0.290
- Osmotic pressure ratio [1, 14]: 0.403
- Osmotic pressure ratio [1, 15]: 0.270
- Osmotic pressure ratio [1, 16]: 0.379
- External appearance after 1 hour stirring [2, 3]: Turbid in white
- External appearance after 1 hour stirring [2, 4]: Turbid in white
- External appearance after 1 hour stirring [2, 5]: Almost clear
- External appearance after 1 hour stirring [2, 6]: Clear
- External appearance after 1 hour stirring [2, 7]: Clear
- External appearance after 1 hour stirring [2, 8]: Clear
- External appearance after 1 hour stirring [2, 9]: Clear
- External appearance after pH adjustment [2, 10]: Turbid in white
- External appearance after 43 hours [2, 10]: Turbid in white
- External appearance after pH adjustment [2, 11]: Turbid in white
- External appearance after 43 hours [2, 11]: Turbid in white
- External appearance after pH adjustment [2, 12]: Almost clear
- External appearance after 43 hours [2, 12]: Turbid in white
- External appearance after pH adjustment [2, 13]: Clear
- External appearance after 43 hours [2, 13]: Turbid in white
- External appearance after pH adjustment [2, 14]: Turbid in white
- External appearance after 43 hours [2, 14]: Turbid in white
- External appearance after pH adjustment [2, 15]: Clear
- External appearance after pH adjustment [2, 16]: Turbid in white
- External appearance after 43 hours [2, 16]: Turbid in white
SMILES: CN(C)CC/C=C1/c2ccccc2COc2ccc(CC(=O)O)cc21.Cl [olopatadine hydrochloride, (Z)-11-(3-dimethylaminopropylidene)-6,11-dihydrodibenz[b,e]oxepin-2-acetic acid hydrochloride]
